Experimental data from a melting point compilation (Tetko et al.; mined from patent text by program, amines drawn as free bases though some values may be those of a salt).

Point of comparison: `COC=C(C(=O)OC)c1ccccc1CSc1ccccc1`, melting point 71 °C. Against it:
- CC(C)(C)c1ccc(OP2OCC3(CO2)COP(Oc2ccc(C(C)(C)C)cc2C(C)(C)C)OC3)c(C(C)(C)C)c1 (stereo unspecified) — higher, 174 to 177 °C
- O=S(=O)(CCNc1ccccc1)NCCCOc1cccc(CN2CCCCC2)c1 — higher, 112 to 115 °C
- COCOc1ccc(OCc2ccc(OCc3nc(-c4ccccc4)oc3C)cc2)c(CC#N)c1 — higher, 123 to 124 °C
- C=C(F)c1c[nH]c(=O)[nH]c1=O — higher, 235 to 238 °C
- O=C(O)c1ccc2c(c1)N(C1CC1)CNS2(=O)=O — higher, 243 to 245 °C
- COc1cc2[nH]c(C)c(C(=O)C(=O)N3CCC(Oc4ccc(C(F)(F)F)cc4)CC3)c2cc1OC — higher, 211 to 213 °C
- CCOC(=O)C1(c2ccccc2)CCN(C2=CCC(C#N)(c3ccccn3)CC2)CC1 (stereo unspecified) — higher, 160 °C
- CCC(O)(c1ccc(F)cc1)c1ccc(OCc2cccc(C)n2)cc1 (stereo unspecified) — higher, 103 to 104 °C
- CSC1=Nc2ccccc2Cn2nnnc21 — higher, 105 to 108 °C
- O=C(CCCCCS(=O)c1ccc(-c2ccc(Cl)cc2)cc1)NO (stereo unspecified) — higher, 108 to 110 °C
- CC(c1ccccc1)N1C(=O)NCc2c(-c3ccccc3)cccc21 (stereo unspecified) — higher, 136 to 138 °C
- CCC(CC)N(Cc1ccc(C#N)cc1)S(=O)(=O)c1ccc(Cl)cc1 — higher, 123 to 125 °C
- Cn1cc(Oc2ccccc2)c(=O)c(-c2ccccc2)c1 — higher, 176 to 177 °C
- COC(=O)c1c(Cl)cc(Cl)cc1NC(=O)CSc1ccc(NC(=S)Nc2cccc(Cl)c2)cc1 — higher, 148 to 150 °C
- C=CCNC1=NS(=O)(=O)N=C1NCCSCc1ccc(CN(C)C)o1 — higher, 83 to 86 °C
- Nc1ccc(NC(=O)CCCCC2CCSS2)cc1 (stereo unspecified) — lower, 55 to 60 °C
- N#CC1C(c2ccccc2)N1C(=O)NC(=O)CCl (stereo unspecified) — higher, 153 to 158 °C
- Cc1cccc(Sc2ccc(C(=O)O)s2)c1 — higher, 73 to 75 °C
- CCOC(=O)c1c(C)nc(-c2ccccc2)nc1-c1ccncc1 — higher, 95 to 96 °C
- N#CC(Nc1cc(Cl)c(Cl)cc1Cl)c1ccccc1 (stereo unspecified) — higher, 124 °C
- CCNc1c(C(=O)OCC)c(=O)n(CC)c2nc(C)ccc12 — higher, 133 to 136 °C
- CCC(=O)Nc1ccc(NC(=O)CN2CCN(CCCCC(c3ccc(F)cc3)c3ccc(F)cc3)C(C(N)=O)C2)c(C(C)=O)c1 (stereo unspecified) — higher, 163 °C
- CC(=O)OC1C=C(C)C(=O)CC(C)(C)C1OC(=O)c1ccccc1 (stereo unspecified) — higher, 86 to 87 °C
- CCC(=O)N[C@@H](C)C(=O)N1CCC[C@H]1C(=O)NC1CCCCCC1 — higher, 155 to 156 °C
- CN(CCNC(=NCCSCc1csc(NC(=N)N)n1)NC#N)CCN(Cc1ccc(F)cc1)c1ccccn1 — higher, 109 °C
- Cc1cn(-c2ccc(C(=O)N3Cc4cccn4Cc4ccccc43)cc2)cn1 — higher, 140 to 145 °C
- CCCCCCc1cc2c(s1)-n1c(C)nnc1CN=C2c1cc(OC)c(OC)c(OC)c1 — higher, 111 to 113 °C
- N#CCCNC(=O)c1n[nH]cc1NC(=O)c1ccoc1 — higher, 250 to 252 °C
- COc1cc2c(c3c1OC(C)(C)C3)C(c1cccc(-c3ccc(NC(=O)CNC(C)=O)cc3)c1)=NC(C)(C)C2 — higher, 218 to 221 °C
- O=C(O)CNC(=O)NC(=O)C(CC1CCCC1)c1ccc(Cl)c(Cl)c1 (stereo unspecified) — higher, 204 to 207 °C
- CCCc1nc(C(C)(O)CC)c(C(=O)O)n1Cc1ccc(-c2ccccc2-c2nnn[nH]2)cc1 (stereo unspecified) — higher, 174 to 177 °C
- COc1ccc2c(c1)[C@H]1Cc3c(cc(C)c(OC)c3C)[C@H]1N2 (relative stereo) — higher, 149 to 150 °C
- COC(=O)Cc1ccccc1Cc1ccccc1C(=O)O — higher, 121 to 123 °C
- CN(C)c1nc(-c2ccc(Cl)cc2)c(CCC(=O)O)o1 — higher, 189 to 190 °C
- CCOC(=O)C(=O)Nc1ccccc1Cn1cc(C(=O)OC)c2ccccc21 — higher, 174 to 177 °C
- CCc1cn(S(C)(=O)=O)c2c1C(=O)CC(c1ccccc1)C2 (stereo unspecified) — higher, 153 to 154 °C
- c1cc(-c2nccs2)nc(C2OCCO2)c1 — the same, 71 °C
- CC(=O)Nc1ccccc1NS(=O)(=O)c1cc(C(=O)O)cc(NCc2ccccc2)c1Oc1ccccc1 — higher, 197 to 200 °C
- O=C(c1cc(Cl)ccc1Cl)N1CCNC1=Nc1ccc(Cl)cc1Cl — higher, 205 to 206 °C
- N#Cc1nn(-c2c(Cl)cc(C(F)(F)F)cc2Cl)cc1-c1ccoc1Cl — higher, 125 °C
- Cn1c(Sc2ccc(C(=O)OCC(C)(C)C)c(Cl)c2)n[nH]c1=O — higher, 138 °C
- CC(=O)NCC1CC1c1c(Br)ccc2nn(C)cc12 (stereo unspecified) — higher, 135 to 137 °C
- NCC(c1ccccc1)C(CN)c1ccccc1 (stereo unspecified) — higher, 144 to 145 °C
- COc1ccc(CNc2c([N+](=O)[O-])cc(Br)c3ccccc23)c(OC)c1 — higher, 104 to 105 °C
- CCCOc1ccccc1-c1nc2cc3ncn(CC(C)C4CCCCC4)c3cc2c(=O)[nH]1 (stereo unspecified) — higher, 178 to 180 °C
- COc1ccc2c(C(=S)N(C)CC(=O)N(C)C)cccc2c1C(F)(F)F — higher, 172 to 175 °C
- CN(C)CCCOc1ccc(-c2nnc(CSCCOc3ccccc3)o2)cn1 — lower, 69 to 70 °C
- Cc1ccc(S(=O)(=O)Cl)c(C)c1NC(=O)CCl — higher, 148 to 149 °C
- CN1CCC(c2cc3cc(C4(O)CCCCC4)ccc3o2)CC1 — higher, 155 to 157 °C
- Cc1cc(-c2ccc(C(F)(F)F)nc2)nc(-c2ccnc(-c3cccc(S(N)(=O)=O)c3)c2)n1 — higher, 255 °C
- CCN1CCCC1CNC(=O)c1cc(N(C)S(=O)(=O)CC)ccc1OC (stereo unspecified) — higher, 85 to 87 °C
- COc1cc(OC)c2c(=O)[nH]c(-c3ccc(O)cc3)cc2c1 — higher, 245 to 247 °C
- COc1cc2c(cc1O)CCN(c1cc(N)c3cc(OC)c(OC)cc3n1)C2 — higher, 250 to 251 °C
- CCOC(=O)c1nc2ccc(N)cc2c(=O)[nH]1 — higher, 233 to 235 °C
- COc1cc(NC(=O)CC(C)=O)c(OC)cc1Cl — higher, 105 to 106 °C
- CCOc1nn(-c2ccc(C(F)(F)F)cn2)cc1CCOc1cc(CCC(=O)O)n(-c2ccccc2)n1 — higher, 155 to 156 °C
- Cc1cc(C)n(C(=O)C(NS(=O)(=O)c2ccc(Cl)cc2)c2ccccc2)n1 (stereo unspecified) — higher, 160 °C
- FC(F)c1cc(Cl)nc2c1c(I)nn2C1CCCCO1 (stereo unspecified) — higher, 157 °C
- CCCCn1nc(C(F)F)nc1Cc1ccc(-c2ccccc2-c2nnn[nH]2)nc1 — higher, 172 to 174 °C
- Clc1ccc2c(c1)C(c1ccccc1)=NCc1ccccc1-2 — higher, 118 to 119 °C
- COC(=O)[C@H](CCC(=O)NCCc1ccc(O)c(OCc2ccccc2)c1)NC(=O)OCc1ccccc1 — higher, 110 to 115 °C
- O=C(c1ccc(Cl)cc1)c1ccc[nH]1 — higher, 106 to 109 °C
- Clc1nc(Cl)c2sc(Cl)nc2n1 — higher, 121 to 122 °C
- Oc1cccc(C=Cc2ccc3ccccc3n2)c1 — higher, 210 to 212 °C
- CCc1ccc(Nc2c(-c3nnc(NCCNC)o3)ccc(F)c2F)c(F)c1 — higher, 154 to 157 °C
- COCCOC/C(=C\S(=O)(=O)c1ccc(C)cc1)C(=O)OC(C)(C)C — lower, 40 to 41 °C
- CCN1CCC(c2cc3ccc(C)cc3c(=O)[nH]2)CC1 — higher, 239 to 241 °C
- CCCC[C@H](NC(=O)[C@H](CC(C)C)NC(=O)c1ccccc1OC)C(=O)CSCc1ccco1 — higher, 77 to 78 °C
- O=c1c2ccoc2c2cccnc2n1-c1ccccc1 — higher, 245 to 247 °C
- CCOc1cc2c(cc1OC)C(c1ccc(C(=O)O)cc1)=N[C@@H]1CCOC[C@H]21 — higher, 203 to 205 °C
- CCOC(=O)c1ccc(-c2ccc(-c3cccc(OCOC)c3)c(-c3ccc4c(c3)C(C)(C)CCC4(C)C)c2)cc1 — higher, 103 to 104 °C
- CCOC(=O)c1c(C)nc2c(nc(C)n2C)c1Cl — higher, 73 to 75 °C
- Cc1ccc(S(=O)(=O)NN)cc1 — higher, 110 °C
- CC1(C)CC(O)CC2(C)OC(=O)C=C12 (stereo unspecified) — higher, 148 to 149 °C
- CCOC(=O)c1sc(-n2ccc(OCCC3CC3)cc2=O)nc1C — higher, 188 to 190 °C
- COC(=O)Cc1c(O)ncnc1O — higher, > 200 °C
- Cc1sc(C)c2c1CCC=C2c1cn(C(c2ccccc2)(c2ccccc2)c2ccccc2)cn1 — higher, 205 to 207 °C
- Nc1nc2cc[nH]c2c(=O)[nH]1 — higher, > 300 °C
- CCOC(=O)c1c[nH]cc1-c1cccc(F)c1 — higher, 120 to 122 °C
- CC1(C)CC(=O)C2C(=NC3=C(C(=O)CC(C)(C)C3)C2c2ccc(C#N)c([N+](=O)[O-])c2)C1 (stereo unspecified) — higher, 274 to 275 °C
- CC(=O)S[C@H]1CC[C@H](/C=C/C=C/c2ccc(C(F)(F)F)cc2)CC1 — higher, 113 to 115 °C
- CC(C)Cn1c(CCl)c(-c2ccccc2)c2cc(Br)ccc2c1=O — higher, 145 to 146 °C
- C#Cc1ccc(C#C)cc1 — higher, 91 to 92 °C
- CCCN1CC(NC(=O)C(C)(C)C)CC2c3cccc4[nH]c(Cl)c(c34)CC21 (stereo unspecified) — higher, 146 to 147 °C
- CC1(C)Oc2ccc(S(=O)(=O)C(F)(F)C(F)(F)C(F)(F)F)cc2[C@@H](N2Cc3ccccc3C2=O)[C@@H]1O (relative stereo) — higher, 241 to 249 °C
- Cc1ccc(C#Cc2cccc(N)c2)cc1 — higher, 88 °C
- Cc1cnc2c(NC(=O)c3c(Cl)cccc3Cl)ccc(Cl)c2c1Cl — higher, 222 to 233 °C
- COc1cc(Oc2ccc(S(C)(=O)=O)nc2)cc2cc(C3=NCC(CC(=O)NCC(C)(C)O)S3)[nH]c12 (stereo unspecified) — higher, 173 to 174 °C
- O=C1NC(=O)c2c1cc(-c1ccccc1)c1[nH]c3ccc(O)cc3c21 — higher, 335 to 345 °C
- C#CCSc1nc(=O)n(CC#C)cc1F — higher, 135 °C
- CC(O)(C1CCC(Oc2ncnc3ccccc23)CC1)C(F)(F)F (stereo unspecified) — higher, 159 to 160 °C
- Cn1ncc2c(=O)[nH]cnc21 — higher, 289 to 290 °C
- COc1cc(OC(=O)c2ccccc2)c2ccccc2c1OC(=O)c1ccccc1 — lower, 63 to 64 °C
- O=C(Nc1cccnc1)N1CCN(c2nccc(-c3cc(F)cc(F)c3)n2)CC1 — higher, 231 to 232 °C
- CN(C)CCCOc1ccc2ccc(N)nc2n1 — higher, 88 °C
- OC(c1cc(Cl)cc(Cl)c1)C(F)(F)C(F)(F)F (stereo unspecified) — not separable, 71 to 73 °C
- Brc1ccc(OC2CCN(c3nc4cccc5c4n3CCC5)CC2c2ccccc2)cc1 (stereo unspecified) — higher, 188 to 189 °C
- CN1C(=O)CC[C@]2(C)c3ccc(-c4cccc5ccccc45)cc3CC[C@@H]12 — higher, 159 °C
- O=C(Cc1ccc(F)cc1)c1cccs1 — lower, 61 to 62.5 °C
- O=C(Cc1ccccc1Br)NCC1OC(n2cc(Br)c(=O)[nH]c2=O)CC1O (stereo unspecified) — higher, 222 to 223 °C
